One assay relates to A549 cells. Nature of the assay: A549 cell death test by PI-AnnexinV (fluorescence microscope). It counts as cell-based. The note with it: A549, 24 h; complex mass ratio 1:6. The method, then:
A549 cells in the logarithmic growth phase were prepared into single cell suspension, inoculated into a 6-well plate as per approximately 1×10^5 cells per well. Then, 2 ml of medium was added to each well and cultured in a 5% CO2 incubator at 37° C. for 24-36 h.
a. 5 mg/ml of pMVA-1 plasmid vector solution was added to 100 μl of 1640 serum-free medium for preparing a pMVA-1 plasmid vector control group;
b. 1 mg/ml of DOTAP cationic lipid was dissolved in 100 μl of 1640 serum-free medium for preparing a DOTAP cationic lipid control group;
c. the pMVA-1/DOTAP complex with a mass ratio of 1:6 prepared in Example 5 was dissolved in 100 μl of 1640 serum-free medium for preparing a pMVA-1/DOTAP complex experimental group.
Some of the medium was pipetted from the 6-well plate in Step (1) until the medium in each well reached 900 μl. The pMVA-1/DOTAP complex (pMVA-DOTAP) (prepared in Step (2)) of the experimental group as well as the pMVA-1 plasmid vector (PMVA) and DOTAP cationic lipid (DOTAP) of the control group was added to A549 cells cultured in Step (1) respectively to make the total volume of 1 ml. At the same time, a blank control group containing only medium was made, and incubated in a 5% of CO2 incubator at 37° C. for 24 h. […]
The cells stained with PI and Annexin V in Step (4) were washed once with PBS and observed under a fluorescence microscope. […]

Assay [1] deals with mouse cervical cancer cell line U14. Nature of the assay: Mice U14 subcutaneous model, complex combined with chemotherapy. It counts as in vivo, C57 female mice. The note with it: U14 sc. On the procedure:
C57 female mice aged 6-8 weeks were raised. The mouse cervical cancer cell line U14 cultured to the logarithmic growth phase was prepared into a cell suspension and the cell density was 2×10^7/ml. Experimental animals were subcutaneously injected on the right back, with an injection system of 100 μl per mouse. When the tumor could be palpated (tumor volume is about 4 mm×4 mm×3 mm, i.e. the 5th day after inoculation), the mice were randomly divided into 6 groups, and administrated every 3 days for a total of 8 times according to the grouping and treatment scheme in Table 16. The tumor volume was measured every three days. After administration for 8 times, the mice were killed and subcutaneous tumors were dissected for examination.
Wherein, the administration volume is 100 μl per mouse, DDP is intraperitoneally administrated once a week. DDP is Cisplatin and LP is pMVA-1/DOTAP complex.

The test system of assay [2] is bone marrow-derived dendritic cells (BMDC). The experiment in a line: FITC-Dextran uptake by BMDC, flow cytometry. The note with it: BMDC stimulated 24 h by CT26 cells treated with sample. It counts as cell-based, mouse. The method, then: a. Bone marrow cells were obtained from the femur and tibia of mouse, sieved and collected in a centrifuge tube, centrifuged at 280 g and at room temperature for 5 min, and the supernatant was discarded.
b. 10 ml of red cell lysate was added to the cells described in Step a, standing for 3 min at room temperature, centrifuged at 280 g and at room temperature for 5 min, and the supernatant was discarded.
c. The bone marrow cells described in Step b were washed twice with PRMI-1640 medium, centrifuged at 280 g and at room temperature for 10 min, live cell count was carried out, the cell concentration was adjusted to 1×10^6 cells/ml by RPMI-1640 complete medium.
d. In Step c, the recombinant mouse GM-CS with a final concentration of 10 ng/ml was added and 4 ml/well cell suspension was inoculated into a 6-well plate, and cultured in a 37° C., 5% CO2 incubator. When cell colonies grew on the bottom of the plate, the medium was pipetted, washed once with the medium, and 1640 complete medium containing 10 ng/ml of GM-CSF was added to each well.
e. […]
d. Test and analysis of fluorescence intensity of BMDC based on flow cytometry.
In general terms: In flow cytometry, cells or beads pass a laser one at a time.

The test system of another assay is lysosomes in A549 cells. The experiment in a line: Lysosomal acidity gradient by Lysotracker Red / YOYO1 probes. It counts as cell-based. The note with it: flow cytometry, 1 h, 3 h, 6 h and 9 h. The method, then: a. Preparation of YOYO1 working fluid: the YOYO1 stock solution was diluted with 1640 serum-free medium at the volume ratio of 1:200;
b. The pMVA-1 plasmid was added to the YOYO1 working fluid prepared in the Step (1) according to a volume ratio of 1:40, and incubated at 37° C. for 1 h.
a. The YOYO1 fluorescent labeled pMVA-1 plasmid prepared in Step 1 was mixed with the DOTAP cationic lipid to form a complex;
b. The YOYO1 fluorescently labeled pMVA-1/DOTAP complex prepared in Step a was added to A549 cells, followed by making two control groups i.e. YOYO1 fluorescently labeled pMVA-1 plasmid group (PMVA) and DOTAP cationic lipid group (DOTAP), and blank control group containing cell culture fluid only.
(1) Preparation of Lysotracher Red working fluid: the Lysotracher Red stock solution was added to the cell culture fluid at a volume ratio of 1:20000 and incubated at 37° C.
a. The A549 cell culture fluid in Step 1 was removed, the Lysotracker Red staining working fluid prepared in Step (1) was added to the cells, and incubated at 37° C. for 1 h; […]
c. A549 cells in Step b were collected and the number of fluorescent cells were quantitatively tested by flow cytometry.

This is an account of results in US11738072B2, “Tumor vaccine and uses thereof” (WestVac Biopharma Co., Ltd., priority 2017, dated 2023).

Each structure is given as a SMILES string.

As to `CCCCCCCC/C=C\CCCCCCCC(=O)OCC(C[N+](C)(C)C)OC(=O)CCCCCCC/C=C\CCCCCCCC` (stereo not shown) [DOTAP, 1,2-dioleoyl-3-trimethylammonium-propane], the “PI-positive and AnnexinV-positive cells” value in the assay on A549 cells is “did not indicate obvious PI uptake and AnnexinV-labeled positive cells”. The “lymphocyte infiltration in tumor tissue” value in assay [1] is reported as “less common”. For the same molecule, the “FITC average fluorescence intensity of CD11c positive DC” value in assay [2] is reported as “decreased significantly”. Further, the “Lysotracker Red fluorescence intensity” value in the assay on lysosomes in A549 cells is “did not change significantly”.
